According to EP0726263A2, “Herbicidal (1,3,4)oxadiazoles and thiadiazoles” (American Cyanamid Company, priority 1995, dated 1996):

Columns and labels:
Assay type in all cases: in vivo
Ipomoea hederacea [1] = assay: Herbicidal activity, postemergence test; conditions: post; sprayed onto seedling plants, 800 g of active material per hectare; evaluated 2 weeks after treatment
Outline: (§1)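 First, test compound in acetone containing 0.4% Triton X-155 is diluted with water. Next, it is sprayed at 800 g/ha (900 L/ha) onto freshly seeded loam (pre) or onto seedlings (post). Finally, plants are scored 0-9 visually after 3 or 2 weeks, respectively.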

Abutilon theophrasti [2] = assay: Herbicidal activity, postemergence test; conditions: post; sprayed onto seedling plants, 800 g of active material per hectare; evaluated 2 weeks after treatment
Outline: as §1

Echinochloa crus-galli [3] = assay: Herbicidal activity, postemergence test; conditions: post; sprayed onto seedling plants, 800 g of active material per hectare; evaluated 2 weeks after treatment
Outline: as §1

Veronica persica [4] = assay: Herbicidal activity, postemergence test; conditions: post; sprayed onto seedling plants, 800 g of active material per hectare; evaluated 2 weeks after treatment
Outline: as §1

Glycine max [5] = assay: Herbicidal activity, postemergence test; conditions: post; sprayed onto seedling plants, 800 g of active material per hectare; evaluated 2 weeks after treatment
Outline: as §1

Amaranthus retroflexus [6] = assay: Herbicidal activity, postemergence test; conditions: post; sprayed onto seedling plants, 800 g of active material per hectare; evaluated 2 weeks after treatment
Outline: as §1

Triticum aestivum [7] = assay: Herbicidal activity, postemergence test; conditions: post; sprayed onto seedling plants, 800 g of active material per hectare; evaluated 2 weeks after treatment
Outline: as §1

Lamium purpureum [8] = assay: Herbicidal activity, postemergence test; conditions: post; sprayed onto seedling plants, 800 g of active material per hectare; evaluated 2 weeks after treatment
Outline: as §1

Alopecurus myosuroides [9] = assay: Herbicidal activity, postemergence test; conditions: post; sprayed onto seedling plants, 800 g of active material per hectare; evaluated 2 weeks after treatment
Outline: as §1

Gossypium hirsutum [10] = assay: Herbicidal activity, postemergence test; conditions: post; sprayed onto seedling plants, 800 g of active material per hectare; evaluated 2 weeks after treatment
Outline: as §1

Galium aparine [11] = assay: Herbicidal activity, postemergence test; conditions: post; sprayed onto seedling plants, 800 g of active material per hectare; evaluated 2 weeks after treatment
Outline: as §1

Setaria viridis [12] = assay: Herbicidal activity, postemergence test; conditions: post; sprayed onto seedling plants, 800 g of active material per hectare; evaluated 2 weeks after treatment
Outline: as §1

Ambrosia artemisifolia [13] = assay: Herbicidal activity, postemergence test; conditions: post; sprayed onto seedling plants, 800 g of active material per hectare; evaluated 2 weeks after treatment
Outline: as §1

Helianthus annuus [14] = assay: Herbicidal activity, postemergence test; conditions: post; sprayed onto seedling plants, 800 g of active material per hectare; evaluated 2 weeks after treatment
Outline: as §1

Hordeum vulgare [15] = assay: Herbicidal activity, postemergence test; conditions: post; sprayed onto seedling plants, 800 g of active material per hectare; evaluated 2 weeks after treatment
Outline: as §1

Zea mays [16] = assay: Herbicidal activity, postemergence test; conditions: post; sprayed onto seedling plants, 800 g of active material per hectare; evaluated 2 weeks after treatment
Outline: as §1

Viola arvensis [17] = assay: Herbicidal activity, postemergence test; conditions: post; sprayed onto seedling plants, 800 g of active material per hectare; evaluated 2 weeks after treatment
Outline: as §1

Stellaria media [18] = assay: Herbicidal activity, postemergence test; conditions: post; sprayed onto seedling plants, 800 g of active material per hectare; evaluated 2 weeks after treatment
Outline: as §1

Ipomoea hederacea [19] = assay: Herbicidal activity, preemergence test; conditions: pre; sprayed onto soil, 800 g of active material per hectare; evaluated 3 weeks after treatment
Outline: as §1

Abutilon theophrasti [20] = assay: Herbicidal activity, preemergence test; conditions: pre; sprayed onto soil, 800 g of active material per hectare; evaluated 3 weeks after treatment
Outline: as §1

Echinochloa crus-galli [21] = assay: Herbicidal activity, preemergence test; conditions: pre; sprayed onto soil, 800 g of active material per hectare; evaluated 3 weeks after treatment
Outline: as §1

Veronica persica [22] = assay: Herbicidal activity, preemergence test; conditions: pre; sprayed onto soil, 800 g of active material per hectare; evaluated 3 weeks after treatment
Outline: as §1

Glycine max [23] = assay: Herbicidal activity, preemergence test; conditions: pre; sprayed onto soil, 800 g of active material per hectare; evaluated 3 weeks after treatment
Outline: as §1

Amaranthus retroflexus [24] = assay: Herbicidal activity, preemergence test; conditions: pre; sprayed onto soil, 800 g of active material per hectare; evaluated 3 weeks after treatment
Outline: as §1

Triticum aestivum [25] = assay: Herbicidal activity, preemergence test; conditions: pre; sprayed onto soil, 800 g of active material per hectare; evaluated 3 weeks after treatment
Outline: as §1

Lamium purpureum [26] = assay: Herbicidal activity, preemergence test; conditions: pre; sprayed onto soil, 800 g of active material per hectare; evaluated 3 weeks after treatment
Outline: as §1

Alopecurus myosuroides [27] = assay: Herbicidal activity, preemergence test; conditions: pre; sprayed onto soil, 800 g of active material per hectare; evaluated 3 weeks after treatment
Outline: as §1

Gossypium hirsutum [28] = assay: Herbicidal activity, preemergence test; conditions: pre; sprayed onto soil, 800 g of active material per hectare; evaluated 3 weeks after treatment
Outline: as §1

Galium aparine [29] = assay: Herbicidal activity, preemergence test; conditions: pre; sprayed onto soil, 800 g of active material per hectare; evaluated 3 weeks after treatment
Outline: as §1

Setaria viridis [30] = assay: Herbicidal activity, preemergence test; conditions: pre; sprayed onto soil, 800 g of active material per hectare; evaluated 3 weeks after treatment
Outline: as §1

Ambrosia artemisifolia [31] = assay: Herbicidal activity, preemergence test; conditions: pre; sprayed onto soil, 800 g of active material per hectare; evaluated 3 weeks after treatment
Outline: as §1

Helianthus annuus [32] = assay: Herbicidal activity, preemergence test; conditions: pre; sprayed onto soil, 800 g of active material per hectare; evaluated 3 weeks after treatment
Outline: as §1

Hordeum vulgare [33] = assay: Herbicidal activity, preemergence test; conditions: pre; sprayed onto soil, 800 g of active material per hectare; evaluated 3 weeks after treatment
Outline: as §1

Zea mays [34] = assay: Herbicidal activity, preemergence test; conditions: pre; sprayed onto soil, 800 g of active material per hectare; evaluated 3 weeks after treatment
Outline: as §1

Viola arvensis [35] = assay: Herbicidal activity, preemergence test; conditions: pre; sprayed onto soil, 800 g of active material per hectare; evaluated 3 weeks after treatment
Outline: as §1

Stellaria media [36] = assay: Herbicidal activity, preemergence test; conditions: pre; sprayed onto soil, 800 g of active material per hectare; evaluated 3 weeks after treatment
Outline: as §1

Row | Structure (SMILES) | IPOHE control rating (0-9) (Ipomoea hederacea [1]) | ABUTH control rating (0-9) (Abutilon theophrasti [2]) | ECHCG control rating (0-9) (Echinochloa crus-galli [3]) | VERPE control rating (0-9) (Veronica persica [4]) | GLXMA control rating (0-9) (Glycine max [5]) | AMARE control rating (0-9) (Amaranthus retroflexus [6]) | TRZAW control rating (0-9) (Triticum aestivum [7]) | LAMPU control rating (0-9) (Lamium purpureum [8]) | ALOMY control rating (0-9) (Alopecurus myosuroides [9]) | GOSHI control rating (0-9) (Gossypium hirsutum [10]) | GALAP control rating (0-9) (Galium aparine [11]) | SETVI control rating (0-9) (Setaria viridis [12]) | AMBEL control rating (0-9) (Ambrosia artemisifolia [13]) | HELAN control rating (0-9) (Helianthus annuus [14]) | HORVW control rating (0-9) (Hordeum vulgare [15]) | ZEAMX control rating (0-9) (Zea mays [16]) | VIOAR control rating (0-9) (Viola arvensis [17]) | STEME control rating (0-9) (Stellaria media [18]) | IPOHE control rating (0-9) (Ipomoea hederacea [19]) | ABUTH control rating (0-9) (Abutilon theophrasti [20]) | also measured
1 | C[C@H](NC(=O)c1nnc(C(C)(C)C)o1)c1ccccc1 [Example 2, (S)-5-tert-Butyl-[1,3,4]oxadiazole-2-carboxylic acid (1-phenylethyl)amide] | 5 (definite injury) | 6 (herbicidal effect) | 3 (moderate effect) | 7 (good herbicidal effect) | 3 (moderate effect) | 6 (herbicidal effect) | 3 (moderate effect) | 2 (slight effect) | 0 (no effect) | 4 (injury) | 4 (injury) | 4 (injury) | 5 (definite injury) | 4 (injury) | 1 (trace effect) | 1 (trace effect) | 5 (definite injury) | 6 (herbicidal effect) | 0 (no effect) | 4 (injury) | ECHCG control rating (0-9) (Echinochloa crus-galli [21]): 0 (no effect); VERPE control rating (0-9) (Veronica persica [22]): 8 (approaching complete kill); GLXMA control rating (0-9) (Glycine max [23]): 0 (no effect); AMARE control rating (0-9) (Amaranthus retroflexus [24]): 5 (definite injury); TRZAW control rating (0-9) (Triticum aestivum [25]): 0 (no effect); LAMPU control rating (0-9) (Lamium purpureum [26]): 0 (no effect); ALOMY control rating (0-9) (Alopecurus myosuroides [27]): 2 (slight effect); GOSHI control rating (0-9) (Gossypium hirsutum [28]): 0 (no effect); GALAP control rating (0-9) (Galium aparine [29]): 0 (no effect); SETVI control rating (0-9) (Setaria viridis [30]): 5 (definite injury); AMBEL control rating (0-9) (Ambrosia artemisifolia [31]): 3 (moderate effect); HELAN control rating (0-9) (Helianthus annuus [32]): 0 (no effect); HORVW control rating (0-9) (Hordeum vulgare [33]): 0 (no effect); ZEAMX control rating (0-9) (Zea mays [34]): 0 (no effect); VIOAR control rating (0-9) (Viola arvensis [35]): 5 (definite injury); STEME control rating (0-9) (Stellaria media [36]): 5 (definite injury)
2 | C[C@H](NC(=O)c1nnc(-c2ccccc2)o1)c1ccccc1 [Example 4] | 9 (complete kill) | 9 (complete kill) | 5 (definite injury) | 9 (complete kill) | 8 (approaching complete kill) | 9 (complete kill) | 4 (injury) | 6 (herbicidal effect) | 4 (injury) | 9 (complete kill) | 8 (approaching complete kill) | 8 (approaching complete kill) | 9 (complete kill) | 9 (complete kill) | 5 (definite injury) | 3 (moderate effect) | 7 (good herbicidal effect) | 9 (complete kill) | 0 (no effect) | 1 (trace effect) | ECHCG control rating (0-9) (Echinochloa crus-galli [21]): 4 (injury); VERPE control rating (0-9) (Veronica persica [22]): 6 (herbicidal effect); GLXMA control rating (0-9) (Glycine max [23]): 0 (no effect); AMARE control rating (0-9) (Amaranthus retroflexus [24]): 8 (approaching complete kill); TRZAW control rating (0-9) (Triticum aestivum [25]): 0 (no effect); LAMPU control rating (0-9) (Lamium purpureum [26]): 3 (moderate effect); ALOMY control rating (0-9) (Alopecurus myosuroides [27]): 0 (no effect); GOSHI control rating (0-9) (Gossypium hirsutum [28]): 0 (no effect); GALAP control rating (0-9) (Galium aparine [29]): 0 (no effect); SETVI control rating (0-9) (Setaria viridis [30]): 4 (injury); AMBEL control rating (0-9) (Ambrosia artemisifolia [31]): 0 (no effect); HELAN control rating (0-9) (Helianthus annuus [32]): 0 (no effect); HORVW control rating (0-9) (Hordeum vulgare [33]): 0 (no effect); ZEAMX control rating (0-9) (Zea mays [34]): 1 (trace effect); VIOAR control rating (0-9) (Viola arvensis [35]): 6 (herbicidal effect); STEME control rating (0-9) (Stellaria media [36]): 6 (herbicidal effect)
